What is called IC50 is the point on the concentration scale where inhibition reaches its midpoint. Usually AUC(0-t) stands for the area under the concentration-time curve up to a stated or last time point. By Vd is commonly meant the apparent volume that relates the amount in the body to the concentration in plasma or blood. As usually defined, the clearance is the volume of plasma or blood freed of the substance per unit of time. One may read the half-life as the time in which the quantity being followed falls by half. One may read the solubility (kinetic) as the concentration staying in solution when a stock, usually in DMSO, is diluted into the medium.

The target of one series is CYP2C9 (Homo sapiens, UniProt P11712). Put plainly: CYP450 enzyme inhibition, 2C9. Type of series: in vitro ADME. Conditions: compound 0.05~50 μM; read-out: IC50 against CYP450 isotype 2C9.
For a further series, the system named is T1, HSP27.
T1 construct: endogenous in cells; host or cells: NCI-H460
Put plainly: HSP27 cross-linking in NCI-H460 cells (Western blot). It is filed as cell-based, human. The note with it: 0-20 μM, 24 h. On the procedure: For polyacrylamide gel electrophoresis (PAGE) and Western blot (WB) analysis, cells were lysed with radioimmunoprecipitation assay (RIPA) buffer (50 mM Tris-HCl [pH 7.5], 150 mM NaCl, 1% NP-40, 0.1% sodium dodecyl sulfate (SDS), and 1% sodium deoxycholate) supplemented with 1 mM Na3VO4, 1 mM dithiothreitol (DTT), 1 mM phenyl-methyl-sulfonyl fluoride (PMSF), and protease inhibitor cocktail (Calbiochem). The samples were boiled for 5 min, and equal amounts of protein were analyzed by SDS-PAGE. […]
( B) NCI-H460 cells were tr eated with J2 or NA49 (0, 1, 5, 10 and 20 μM) for 24 h, and cell lysates were
detected by Western blot analysis. […]
A general note: A western blot detects proteins with antibodies after separation by electrophoresis.

Series [1] is described as follows: Pharmacokinetic study after IV injection in rats. It is filed as in vivo. Conditions: male, Sprague-Dawley, plasma, rat. From the text: Male Sprague–Dawley rats (7-week-old) and male Institute of Cancer Research (ICR) mice (5-week-old) were purchased from Orient Bio (Seongnam, Korea) and Samtako Bio (Osan, Korea), respectively. The experimental animals were housed under conventional conditions and fasted overnight before surgery for catheterization. All procedures for animal experiments were in accordance with the guidelines by the Ewha Woman’s University Institutional Animal Care and Use Committee (IACUC, 15-049 and 16-062), Korea.
The HPLC system used for this study was an Agilent HP1100 equipped with a quaternary pump with degasser, a variable wavelength detector, a thermostatted auto-sampler, and an HPLC 2D Agilent ChemStation software. A capcell-pak C18 MG120 column (3.0 × 250 mm, 5 µm, Shiseido, Tokyo, Japan) was used at 25 °C. The mobile phase was composed of water (0.1% trifluoroacetic acid) and acetonitrile (0.1% trifluoroacetic acid) (57:43 (v/v) for J2 and 50:50 (v/v) for NA49, respectively), filtered through a 0.45 μm Millipore filter and degassed prior to use, and the flow rate was 0.5 mL/min. UV detection was performed at 248 nm for J2 and at 246 nm for NA49, and the injection volume was 40 µL for both compounds. […] The accuracy (%) was calculated by dividing the mean of the measured drug concentration by the theoretical drug concentration. […] After extraction, the supernatant was transferred to a clean insert for HPLC analysis.
J2 and NA49 were dissolved in 10% DMAc and 10% Tween® 80 solution in saline to a concentration of 2.5 mg/mL for pharmacokinetic studies. The common carotid artery of the rat was catheterized under anesthesia using isoflurane the day before administration of J2 and NA49 [27]. Rats were divided into four groups. J2 and NA49 were administered to rats by intravenous (IV) injection at doses of 2 mg/kg and 10 mg/kg, respectively. Blood samples (0.2~0.25 mL) were collected at 0, 0.033, 0.083, 0.167, 0.33, 0.67, 1, 2, 3, 5, 7, 9, and 24 h following IV administration. The plasma samples obtained after centrifugation of the blood samples were stored at −20°C until HPLC analysis. The following pharmacokinetic parameters of J2 and NA49 were estimated by non-compartmental analysis using WinNonlin® Professional version 5.2 software (Pharsight Corporation, Mountain View, CA, USA): Initial drug concentration (C0), area under the plasma concentration–time curve from 0 h to the final sampling time point (AUC0-last), elimination half-life (t1/2), apparent volume of distribution (Vd), and total clearance (Cl).

A short description of series [2]: Kinetic solubility by nephelometry. Conditions: aqueous buffer, kinetic from dmso stock; pH 7, nephelometry. It is filed as physicochemical.
Procedure: (§1) Permeability was evaluated with a parallel artificial membrane permeability (PAMPA) assay using an artificially generated lipid-infused membrane.
The next series concerns the target CYP450 3A4 (Homo sapiens, UniProt P08684). Put plainly: CYP450 enzyme inhibition, 3A4.
A further series has as its target T2, CYP1A2 (Homo sapiens, UniProt P05177).
T2 sequence (P05177 1-516): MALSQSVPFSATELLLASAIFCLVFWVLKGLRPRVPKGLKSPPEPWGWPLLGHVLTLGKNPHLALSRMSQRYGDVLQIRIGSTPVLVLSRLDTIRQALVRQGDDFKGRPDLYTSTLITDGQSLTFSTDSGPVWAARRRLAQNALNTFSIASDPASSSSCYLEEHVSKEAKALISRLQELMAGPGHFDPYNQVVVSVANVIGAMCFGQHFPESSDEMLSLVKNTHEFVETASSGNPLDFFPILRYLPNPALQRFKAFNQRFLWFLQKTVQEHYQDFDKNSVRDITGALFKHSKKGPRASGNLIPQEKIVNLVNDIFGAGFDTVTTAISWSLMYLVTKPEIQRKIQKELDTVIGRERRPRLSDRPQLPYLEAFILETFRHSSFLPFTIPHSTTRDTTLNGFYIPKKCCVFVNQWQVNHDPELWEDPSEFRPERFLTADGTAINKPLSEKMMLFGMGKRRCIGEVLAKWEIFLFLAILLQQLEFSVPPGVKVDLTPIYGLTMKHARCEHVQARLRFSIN
Put plainly: biochemical.

Series [3] relates to VERO: African green monkey kidney cell line. Put plainly: Cytotoxicity in normal mammalian cells (VERO). Type of series: cell-based. Conditions: Chlorocebus sabaeus, 24 h, 0.01-100 μM, read-out: IC50 of compounds in various normal mammalian cells.
The nature of series [4]: Liver microsomal phase I stability assay (rat). It is filed as in vitro ADME. The note with it: rat liver microsomes.
The test system of the next series is normal mammalian cells. Put plainly: Cytotoxicity, range over the normal mammalian cell panel. Type of series: cell-based. The note with it: HFL-1, L929, NIH3T3, CHO-K1, VERO; 24 h; read-out: IC50 values, range over the normal cell lines.
The subject of series [5] is NIH 3T3: mouse embryonic fibroblast cell line. Put plainly: Cytotoxicity in normal mammalian cells (NIH 3T3). Conditions: NIH3T3, 24 h, 0.01-100 μM, read-out: IC50 of compounds in various normal mammalian cells. Type of series: cell-based.
Series [6] relates to HFL-1: human embryonic lung cell line. Put plainly: Cytotoxicity in normal mammalian cells (HFL-1). It is filed as cell-based. The note with it: HFL1, HFL-1, 24 h, 0.01-100 μM, read-out: IC50 of compounds in various normal mammalian cells.

Where “and” joins values, the source holds several entries; their conditions need not be identical. Equal values may be shown once. Where only a bound is given, the exact number is not on record here.

Sequence of CYP2C9 (P11712 whole entry): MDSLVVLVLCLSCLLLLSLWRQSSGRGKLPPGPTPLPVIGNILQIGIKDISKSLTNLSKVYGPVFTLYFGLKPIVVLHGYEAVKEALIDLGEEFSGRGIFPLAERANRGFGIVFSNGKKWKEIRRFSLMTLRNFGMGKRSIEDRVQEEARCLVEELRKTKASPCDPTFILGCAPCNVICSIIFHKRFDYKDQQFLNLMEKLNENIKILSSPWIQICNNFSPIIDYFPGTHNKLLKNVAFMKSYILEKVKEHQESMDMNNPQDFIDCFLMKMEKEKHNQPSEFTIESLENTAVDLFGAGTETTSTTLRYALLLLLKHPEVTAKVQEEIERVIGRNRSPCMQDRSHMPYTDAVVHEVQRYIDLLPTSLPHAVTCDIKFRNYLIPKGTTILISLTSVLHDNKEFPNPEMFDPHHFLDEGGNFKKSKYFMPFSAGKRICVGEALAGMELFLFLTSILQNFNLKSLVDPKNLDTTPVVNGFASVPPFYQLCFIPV
Sequence of CYP450 3A4 (P08684 whole entry): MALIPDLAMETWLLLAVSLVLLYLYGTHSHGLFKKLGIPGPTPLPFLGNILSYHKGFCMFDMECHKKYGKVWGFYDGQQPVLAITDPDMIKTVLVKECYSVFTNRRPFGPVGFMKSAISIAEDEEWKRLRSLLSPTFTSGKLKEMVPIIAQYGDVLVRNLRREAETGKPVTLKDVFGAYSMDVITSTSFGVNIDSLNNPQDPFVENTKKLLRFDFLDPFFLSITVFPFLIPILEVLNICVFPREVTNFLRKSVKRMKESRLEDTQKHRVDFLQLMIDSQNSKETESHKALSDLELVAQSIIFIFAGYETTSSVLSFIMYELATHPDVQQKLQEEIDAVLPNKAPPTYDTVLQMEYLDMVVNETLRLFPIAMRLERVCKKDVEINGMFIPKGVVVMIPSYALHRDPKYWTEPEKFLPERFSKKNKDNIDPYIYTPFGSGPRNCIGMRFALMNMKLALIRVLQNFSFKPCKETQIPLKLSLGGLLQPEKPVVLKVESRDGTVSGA
Procedure for CYP2C9: as §1

Regarding `Cc1cc(=O)c2c(O)cc(OCC3CS3)cc2o1` (stereo not shown) [J2], the IC50 at CYP2C9 was over 50 µM; against CYP450 3A4, over 50 µM; at CYP1A2 it was 0.1 µM; in series [3], 91.8 µM; in the series on normal mammalian cells, at least 91.8 µM; in series [5] it was over 100 µM. In addition, the IC50 in series [6] is over 100 µM. Moreover, the “HSP27 cross-linking activity (altered dimerization)” value in the series on HSP27 was “altered dimerization was detected”. Further, the results for the AUC(0-t) in [1] (2 mg/kg) and in series [1] (10 mg/kg) were 180 ± 50 ng·h/mL and 1480 ± 750 ng·h/mL, respectively. The C0 in [1] (2 mg/kg) turned out to be 1640 ± 730 ng/mL; in series [1] (10 mg/kg), 6960 ± 2600 ng/mL. Further, the Vd in series [1] (2 mg/kg) worked out at 0.77 ± 0.27 L; in series [1] (10 mg/kg), 1.05 ± 0.72 L. Also, the clearance in series [1] (2 mg/kg) was 46.5 mL/min; in series [1] (10 mg/kg), 31.7 mL/min. Besides, the half-life in series [1] (2 mg/kg) is 11.4 ± 4.2 min; in series [1] (10 mg/kg), 27 ± 18 min. Further, the kinetic solubility in series [2] is 73.2 µM and 19.5 µg/mL. In series [4], the “In vitro Metabolic Stability (% of remaining after 30 min)” value was determined as 2.6 ± 0.45%.
For the compound `COc1ccc(-c2coc3cc(OCC4CS4)ccc3c2=O)c(OC)c1` (stereo not shown) [NA49], the IC50 was 19.2 µM on CYP2C9; over 50 µM at CYP450 3A4; over 50 µM at CYP1A2; 83.6 µM in series [3]; 83.6 to 96.5 µM with normal mammalian cells; 96.5 µM in series [5]. Besides, the IC50 in series [6] was determined as 94.5 µM. The “HSP27 cross-linking activity (altered dimerization)” value with HSP27 is “slightly less than J2”. Further, the figures for the AUC(0-t) in series [1] (2 mg/kg) and in series [1] (10 mg/kg) were 210 ± 70 ng·h/mL and 1240 ± 590 ng·h/mL, respectively. Further, the C0 is 720 ± 400 ng/mL in series [1] (2 mg/kg) and 4960 ± 1120 ng/mL in [1] (10 mg/kg). In addition, the distribution volume (Vd) in series [1] (2 mg/kg) amounted to 3.35 ± 1.69 L; in series [1] (10 mg/kg) it was 4.13 ± 1.87 L. Further, the clearance in series [1] (2 mg/kg) is 30.7 mL/min; in series [1] (10 mg/kg), 30 mL/min. The figures for the half-life in series [1] (2 mg/kg) and in series [1] (10 mg/kg) were 84 ± 50.4 min and 93 ± 28.8 min, respectively. Also, in series [2], the kinetic solubility is 90.2 µM and 33.4 µg/mL. Further, the “In vitro Metabolic Stability (% of remaining after 30 min)” value in series [4] was determined as 5.0 ± 1.33%.

For the origin of these results see article PMC8145107 (Pharmaceutics, 2021).
